According to patent US20230365592A1 (Agios Pharmaceuticals, Inc., priority 2022, published 2023):

The molecules below were run against T1, human PAH with the R408W mutation (Homo sapiens, UniProt P00439, R408W) (assay: Cell Based Phenylalanine Flux Assay). Settings: A375 cells expressing R408W PAH; 24 hrs with compound, then 20 µM sepiapterin and 800 µM 13C9,15N-Phenylalanine for 4 hours; 13C-Tyrosine by LC-MS; average where tested multiple times; read-out: AC50.
T1 construct: expressed in transfected cells
T1 sequence (P00439 1-452 R408W): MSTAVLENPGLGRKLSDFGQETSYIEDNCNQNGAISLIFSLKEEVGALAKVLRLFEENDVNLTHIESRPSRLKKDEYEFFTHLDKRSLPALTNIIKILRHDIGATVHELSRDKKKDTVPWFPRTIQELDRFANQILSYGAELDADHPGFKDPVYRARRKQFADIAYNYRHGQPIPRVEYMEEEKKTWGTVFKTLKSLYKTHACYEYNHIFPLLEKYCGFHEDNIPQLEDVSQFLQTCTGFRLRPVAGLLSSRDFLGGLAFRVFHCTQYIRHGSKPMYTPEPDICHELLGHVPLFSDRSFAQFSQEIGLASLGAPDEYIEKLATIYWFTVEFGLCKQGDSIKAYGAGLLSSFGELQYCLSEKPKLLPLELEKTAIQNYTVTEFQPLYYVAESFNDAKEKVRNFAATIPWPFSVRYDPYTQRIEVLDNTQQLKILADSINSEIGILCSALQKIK
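Also: after compound treatment, cells received sepiapterin plus isotope-labelled Phenylalanine for 4 hours, then labelled Tyrosine in the medium was quantified, 10-point 2-fold dilution series run in duplicate.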

SMILES | AC50
Cc1ccc2c(C(=O)N3CCc4[nH]cnc4C3c3cc4cccc(C)n4n3)cnn2c1 (centres unmarked) | > 5 µM
Cn1cc(-c2ccc3c(C(=O)N4CCc5[nH]cnc5[C@@H]4c4cc5ccccn5n4)cnn3c2)cn1 (single isomer, unassigned) | 1 to 5 µM
O=C(c1cnco1)N1CCc2[nH]cnc2C1c1cc2cccc(Cl)n2n1 (centres unmarked) | 1 to 5 µM
CN(C)Cc1ccc2c(C(=O)N3CCc4[nH]cnc4C3c3cc4c(F)cccn4n3)cnn2c1 (centres unmarked) | 1 to 5 µM
Cc1cccc2cc(C3c4nc[nH]c4CCN3c3nnc(C4CCC4)o3)nn12 (centres unmarked) | > 5 µM
O=C(c1nnc(-c2ccccn2)o1)N1CCc2[nH]cnc2C1c1cc2cc(F)ccn2n1 (centres unmarked) | 1 to 5 µM
Cc1ncccc1-c1nnc(N2CCc3[nH]cnc3[C@H]2c2cc3c(C4CC4)cccn3n2)o1 (single isomer, unassigned) | 1 to 5 µM
CC1(c2nnc(N3CCc4[nH]cnc4C3c3cc4c(C(F)F)cccn4n3)o2)CC1 (centres unmarked) | 1 to 5 µM
Cn1ccc(-c2ncc(C(=O)N3CCc4[nH]cnc4C3c3cc4c(C(F)F)cccn4n3)o2)n1 (centres unmarked) | 1 to 5 µM
O=C(c1cnco1)N1CCc2[nH]cnc2C1c1cc2cccc(C(F)(F)F)n2n1 (centres unmarked) | 1 to 5 µM
O=C(C1CN(CC(F)(F)F)C1)N1CCc2[nH]cnc2C1c1cc2ccccn2n1 (centres unmarked) | > 5 µM
CC(C)(O)c1nnc(C(=O)N2CCc3[nH]cnc3C2c2cc3cc(C(F)(F)F)ccn3n2)o1 (centres unmarked) | > 5 µM
Cc1ccn2nc(C3c4nc[nH]c4CCN3C(=O)c3nnc(C4CC4)o3)cc2c1 (centres unmarked) | 1 to 5 µM

Same assay, conditions: A375 cells expressing human PAH R408W; 24 hrs compound incubation; 13C-Tyrosine by LC-MS; average where tested multiple times; read-out: AC50

SMILES | AC50
CCc1cccn2nc([C@H]3c4nc[nH]c4CCN3C(=O)c3nnc(-c4cnn(C)c4)o3)cc12 [Example 1925, (R)-(4-(4-ethylpyrazolo[1,5-a]pyridin-2-yl)-1,4,6,7-tetrahydro-5H-imidazo[4,5-c]pyridin-5-yl)(5-(1-methyl-1H-pyrazol-4-yl)-1,3,4-oxadiazol-2-yl)methanone] | > 5 µM
O=C(c1cnc(-c2ccccn2)o1)N1CCc2[nH]cnc2[C@H]1c1cc2c(C(F)F)cccn2n1 [Example 2034, (S)-(4-(4-(difluoromethyl)pyrazolo[1,5-a]pyridin-2-yl)-1,4,6,7-tetrahydro-5H-imidazo[4,5-c]pyridin-5-yl)(2-(pyridin-2-yl)oxazol-5-yl)methanone] | 0.5 to 1 µM
O=C(c1ocnc1C(F)F)N1CCc2[nH]cnc2[C@@H]1c1cc2cc(F)ccn2n1 [Example 2401, (R)-(4-(difluoromethyl)oxazol-5-yl)(4-(5-fluoropyrazolo[1,5-a]pyridin-2-yl)-6,7-dihydro-1H-imidazo[4,5-c]pyridin-5(4H)-yl)methanone] | 1 to 5 µM
CC(F)(F)c1nnc(N2CCc3[nH]cnc3[C@H]2c2cc3c(F)cccn3n2)o1 [Example 2197, (S)-2-(1,1-difluoroethyl)-5-(4-(4-fluoropyrazolo[1,5-a]pyridin-2-yl)-1,4,6,7-tetrahydro-5H-imidazo[4,5-c]pyridin-5-yl)-1,3,4-oxadiazole] | 0.5 to 1 µM
O=C(c1nnc(-c2cnn(C(F)(F)F)c2)o1)N1CCc2[nH]cnc2[C@H]1c1cc2c(C3CC3)cccn2n1 [Example 1928, (S)-(4-(4-cyclopropylpyrazolo[1,5-a]pyridin-2-yl)-1,4,6,7-tetrahydro-5H-imidazo[4,5-c]pyridin-5-yl)(5-(1-(trifluoromethyl)-1H-pyrazol-4-yl)-1,3,4-oxadiazol-2-yl)methanone] | 0.5 to 1 µM
O=C(c1nnc(-c2c(F)cccc2F)o1)N1CCc2[nH]cnc2C1c1cc2ccccn2n1 (centres unmarked) [Example 2524, (5-(2,6-difluorophenyl)-1,3,4-oxadiazol-2-yl)(4-(pyrazolo[1,5-a]pyridin-2-yl)-6,7-dihydro-1H-imidazo[4,5-c]pyridin-5(4H)-yl)methanone] | 0.5 to 1 µM

Same assay, conditions: A375 cells expressing human R408W PAH; 24 hrs compound incubation; 13C-Tyrosine by LC-MS; average where tested multiple times; read-out: AC50

SMILES | AC50
Cc1nc([C@@H](C)O)oc1C(=O)N1CCc2[nH]cnc2[C@H]1c1cc2c(C)cccn2n1 [Example 752, (2-((R)-1-hydroxyethyl)-4-methyloxazol-5-yl)((S)-4-(4-methylpyrazolo[1,5-a]pyridin-2-yl)-6,7-dihydro-1H-imidazo[4,5-c]pyridin-5(4H)-yl)methanone] | < 0.5 µM
C[C@H](O)c1nc(C(F)F)c(C(=O)N2CCc3[nH]cnc3[C@H]2c2cc3cccc(Cl)n3n2)o1 [Example 1195, ((S)-4-(7-chloropyrazolo[1,5-a]pyridin-2-yl)-6,7-dihydro-1H-imidazo[4,5-c]pyridin-5(4H)-yl)(4-(difluoromethyl)-2-((S)-1-hydroxyethyl)oxazol-5-yl)methanone] | 0.5 to 1 µM
Cn1nccc1C(=O)N1CCc2[nH]cnc2[C@H]1c1cc2c(F)cccn2n1 [Example 884, (S)-(4-(4-fluoropyrazolo[1,5-a]pyridin-2-yl)-6,7-dihydro-1H-imidazo[4,5-c]pyridin-5(4H)-yl)(1-methyl-1H-pyrazol-5-yl)methanone] | 0.5 to 1 µM
C[C@H](O)c1nc(C(F)F)c(C(=O)N2CCc3[nH]cnc3[C@H]2c2cc3ccccn3n2)o1 [Example 692, (4-(difluoromethyl)-2-((S)-1-hydroxyethyl)oxazol-5-yl)((S)-4-(pyrazolo[1,5-a]pyridin-2-yl)-6,7-dihydro-1H-imidazo[4,5-c]pyridin-5(4H)-yl)methanone] | < 0.5 µM
Cn1cc(-c2nnc(C(=O)N3CCc4[nH]cnc4[C@H]3c3cc4ccc(F)cn4n3)o2)cn1 [Example 1100, (S)-(4-(6-fluoropyrazolo[1,5-a]pyridin-2-yl)-6,7-dihydro-1H-imidazo[4,5-c]pyridin-5(4H)-yl)(5-(1-methyl-1H-pyrazol-4-yl)-1,3,4-oxadiazol-2-yl)methanone] | 0.5 to 1 µM
O=C(c1cnn2cc(C3CC3)ccc12)N1CCc2[nH]cnc2[C@H]1c1cc2c(F)cccn2n1 [Example 1672, (S)-(6-cyclopropylpyrazolo[1,5-a]pyridin-3-yl)(4-(4-fluoropyrazolo[1,5-a]pyridin-2-yl)-6,7-dihydro-1H-imidazo[4,5-c]pyridin-5(4H)-yl)methanone] | < 0.5 µM
FC(F)(F)c1cnc(N2CCc3[nH]cnc3[C@H]2c2cc3c(Cl)cccn3n2)nc1 [Example 1780, (S)-4-(4-chloropyrazolo[1,5-a]pyridin-2-yl)-5-(5-(trifluoromethyl)pyrimidin-2-yl)-4,5,6,7-tetrahydro-1H-imidazo[4,5-c]pyridine] | < 0.5 µM
O=C(c1nnc(-c2ccncn2)o1)N1CCc2[nH]cnc2[C@@H]1c1cc2c(F)cccn2n1 [Example 1259, (R)-(4-(4-fluoropyrazolo[1,5-a]pyridin-2-yl)-6,7-dihydro-1H-imidazo[4,5-c]pyridin-5(4H)-yl)(5-(pyrimidin-4-yl)-1,3,4-oxadiazol-2-yl)methanone] | 1 to 5 µM
Cc1ccc(-c2nnc(C(=O)N3CCc4[nH]cnc4[C@H]3c3cc4c(C)cccn4n3)o2)nc1 [Example 871, (S)-(4-(4-methylpyrazolo[1,5-a]pyridin-2-yl)-6,7-dihydro-1H-imidazo[4,5-c]pyridin-5(4H)-yl)(5-(5-methylpyridin-2-yl)-1,3,4-oxadiazol-2-yl)methanone] | < 0.5 µM
Cn1ncnc1C(=O)N1CCc2[nH]cnc2[C@@H]1c1cc2c(F)cccn2n1 [Example 841, (R)-(4-(4-fluoropyrazolo[1,5-a]pyridin-2-yl)-6,7-dihydro-1H-imidazo[4,5-c]pyridin-5(4H)-yl)(1-methyl-1H-1,2,4-triazol-5-yl)methanone] | 1 to 5 µM
O=C(c1nnc(C2CC2)o1)N1CCc2[nH]cnc2[C@H]1c1cc2cccc(C(F)F)n2n1 [Example 1390, (S)-(5-cyclopropyl-1,3,4-oxadiazol-2-yl)(4-(7-(difluoromethyl)pyrazolo[1,5-a]pyridin-2-yl)-6,7-dihydro-1H-imidazo[4,5-c]pyridin-5(4H)-yl)methanone] | 0.5 to 1 µM
Cc1cccn2nc([C@H]3c4nc[nH]c4CCN3C(=O)c3nnc(C4CCC4)o3)cc12 [Example 1557, (R)-(5-cyclobutyl-1,3,4-oxadiazol-2-yl)(4-(4-methylpyrazolo[1,5-a]pyridin-2-yl)-6,7-dihydro-1H-imidazo[4,5-c]pyridin-5(4H)-yl)methanone] | 1 to 5 µM
Cc1cccc2cc([C@H]3c4nc[nH]c4CCN3C(=O)c3nnc(C4CCC4)o3)nn12 [Example 1563, (R)-(5-cyclobutyl-1,3,4-oxadiazol-2-yl)(4-(7-methylpyrazolo[1,5-a]pyridin-2-yl)-6,7-dihydro-1H-imidazo[4,5-c]pyridin-5(4H)-yl)methanone] | 1 to 5 µM
O=C(CC1CC1)N1CCc2[nH]cnc2[C@H]1c1cc2ccccn2n1 [Example 614, (S)-2-cyclopropyl-1-(4-(pyrazolo[1,5-a]pyridin-2-yl)-6,7-dihydro-1H-imidazo[4,5-c]pyridin-5(4H)-yl)ethanone] | < 0.5 µM
CC(C)(O)c1nc(C(F)(F)F)c(C(=O)N2CCc3[nH]cnc3[C@H]2c2cc3cccc(Cl)n3n2)o1 [Example 1192, (S)-(4-(7-chloropyrazolo[1,5-a]pyridin-2-yl)-6,7-dihydro-1H-imidazo[4,5-c]pyridin-5(4H)-yl)(2-(2-hydroxypropan-2-yl)-4-(trifluoromethyl)oxazol-5-yl)methanone] | < 0.5 µM
Cn1cc(-c2nnc(C(=O)N3CCc4[nH]cnc4[C@@H]3c3cc4cccc(C(F)F)n4n3)o2)cn1 [Example 1407, (R)-(4-(7-(difluoromethyl)pyrazolo[1,5-a]pyridin-2-yl)-6,7-dihydro-1H-imidazo[4,5-c]pyridin-5(4H)-yl)(5-(1-methyl-1H-pyrazol-4-yl)-1,3,4-oxadiazol-2-yl)methanone] | > 5 µM
